Consider one compound from US10463658B2, “Method of inhibiting FLT3 kinase” (AROG Pharmaceuticals, LLC, priority 2013, dated 2019).

Positions count from the first letter of the chain named. pIC50, pKd: −log10 of the molar value.

In general, pKd refers to the Kd on a negative log10 scale, so that one unit is a factor of ten. One may read the pIC50 as the IC50 on a negative log10 scale, so that one unit is a factor of ten.

For one test, the target named is T1, FLT3 wild type (Homo sapiens, UniProt P36888).
T1 construct: host or cells: E. coli BL21-derived host (T7 phage) or HEK-293
T1 sequence (P36888 610-943 limits assumed): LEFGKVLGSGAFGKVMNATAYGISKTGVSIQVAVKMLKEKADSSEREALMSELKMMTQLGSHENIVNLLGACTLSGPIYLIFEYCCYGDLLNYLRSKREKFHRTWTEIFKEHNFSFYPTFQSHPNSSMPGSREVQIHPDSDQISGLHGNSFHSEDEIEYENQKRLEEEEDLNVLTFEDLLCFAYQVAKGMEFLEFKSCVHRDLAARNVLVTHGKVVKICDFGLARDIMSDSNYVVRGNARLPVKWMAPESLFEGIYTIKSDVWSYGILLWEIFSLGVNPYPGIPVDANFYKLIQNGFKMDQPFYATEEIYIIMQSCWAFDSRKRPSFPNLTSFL
Put plainly: KINOMEscan KdElect competitive binding assay, wild type FLT3. Conditions: CP-673,451 as tosylate salt; read-out: Binding Constant (Kd), FLT3 wild type.

The subject of test [1] is Ba/F3 expressing FLT3-D835Y/ITD cells. Put plainly: Activity against Ba/F3 cells with FLT3-ITD and FLT3-D835Y mutation. It counts as cell-based. Conditions: Mus musculus, BaF3; Ba/F3 FLT-ITD/D835Y cells; read-out: IC50 pFLT3 (text: decreased viability).
The next test concerns the target T2, FLT3 D835V (Homo sapiens, UniProt P36888, D835V).
T2 construct: host or cells: E. coli BL21-derived host (T7 phage) or HEK-293
T2 sequence (P36888 610-943 D835V limits assumed): T1 sequence (P36888 610-943 limits assumed) with D226V
As to the kind of experiment: KINOMEscan KdElect competitive binding assay, FLT3 D835V. To be noted: tosylate salt. The text has this:
Competitive binding assay.
The lysates were then centrifuged and filtered.

Another test deals with T3, FLT3-ITD (Homo sapiens, UniProt P36888).
T3 sequence (P36888 with tags, fused parts or gaps DUP594-600): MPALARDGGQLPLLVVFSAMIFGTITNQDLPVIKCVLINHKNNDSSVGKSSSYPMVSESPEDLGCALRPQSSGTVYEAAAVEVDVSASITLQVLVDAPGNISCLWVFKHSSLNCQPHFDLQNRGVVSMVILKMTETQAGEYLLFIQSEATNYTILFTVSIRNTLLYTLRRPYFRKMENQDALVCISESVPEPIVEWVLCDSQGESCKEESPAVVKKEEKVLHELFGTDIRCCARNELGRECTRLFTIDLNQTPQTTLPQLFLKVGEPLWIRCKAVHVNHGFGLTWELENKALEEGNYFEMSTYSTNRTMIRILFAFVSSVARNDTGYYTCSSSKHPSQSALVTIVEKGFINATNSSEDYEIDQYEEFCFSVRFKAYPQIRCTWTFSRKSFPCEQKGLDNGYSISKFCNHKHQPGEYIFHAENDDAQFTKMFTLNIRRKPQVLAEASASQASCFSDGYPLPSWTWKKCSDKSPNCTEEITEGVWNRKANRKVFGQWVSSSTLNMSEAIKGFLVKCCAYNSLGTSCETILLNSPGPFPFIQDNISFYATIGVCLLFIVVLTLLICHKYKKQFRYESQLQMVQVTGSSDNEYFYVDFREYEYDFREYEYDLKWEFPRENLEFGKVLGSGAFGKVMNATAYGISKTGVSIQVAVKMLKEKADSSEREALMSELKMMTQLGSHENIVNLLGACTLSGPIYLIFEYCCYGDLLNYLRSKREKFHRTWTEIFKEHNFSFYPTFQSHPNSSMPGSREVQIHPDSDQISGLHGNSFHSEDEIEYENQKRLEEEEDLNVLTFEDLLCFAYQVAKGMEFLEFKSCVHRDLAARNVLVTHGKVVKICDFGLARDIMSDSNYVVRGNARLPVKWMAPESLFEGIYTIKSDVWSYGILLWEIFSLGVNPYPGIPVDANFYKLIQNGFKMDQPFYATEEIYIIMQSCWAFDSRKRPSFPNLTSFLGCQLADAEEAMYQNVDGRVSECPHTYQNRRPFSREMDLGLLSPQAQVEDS
Put plainly: Inhibition of FLT3-ITD phosphorylation by western blot in Molm-13 cells. Type of test: cell-based. Conditions: tosylate salt, read-out: IC50, inhibition of phosphorylation of the FLT3-ITD receptor. As for the experimental part: The ability of the tosylate (toluenesulfonate) salt of CP-673,451 to inhibit phosphorylated FLT3 was determined using cell lines expressing FLT3-ITD, including Molm-13 (a human acute myeloid leukemia cell line) and BaF3 (bone marrow-derived pro-B-cell line) cells transduced to express FLT3. The effect was examined by western blot.
A general note: Immunoblotting shows a protein as a band on a membrane.

With `COCCOc1ccc2c(c1)ncn2-c1ccc2cccc(N3CCC(N)CC3)c2n1` [CP-673,451], the pKd on FLT3 wild type was 9.46; at FLT3 D835V, 10.82. The negative logarithm of the IC50 (pIC50) in test [1] is 7.62; at FLT3-ITD it was 9.15.
